Legend:
AMML = test: Survival of fresh human leukemic cells, continuous exposure; type: cell-based
C-type virus = test: Monitoring of treated MJY-alpha cells for induction of C-type virus; type: cell-based; conditions: 0.5 to 48 hour pulse or 8 months culture in the tripeptide
Text: The possible multifocal action of this antitumor tripeptide was a concern during examination of this compound. Since virus particles obtained by induction are infectious and oncogenic, PTT.119-treated cells were monitored for the presence of C-type virus. […] In addition, no diminution of the inhibitory effect of PTT.119 or enhancement of B-type retrovirus production was observed under these conditions.

[1] = tested on: MJY-alpha mammary tumor cells; test: Bioassay of tumorigenicity of in vitro treated tumor cells in syngeneic hosts; type: in vivo, BALB/c mice; conditions: for MEAN SURVIVAL TIME (MST) of recipients: control 42
Text: Suspensions of untreated and tripeptide treated MJY-alpha mammary tumor, B-16 melanoma, and L-1210 leukemia cells were adjusted to a concentration of 1×10^7 cells/ml based on the initial tumor cell concentration before the tripeptide exposure. Tumor cells were inoculated into syngeneic hosts at a concentration of 1×10^6 cells in […]. Female BALB/c/Crgl recipients of MJY-alpha mammary tumor cells and male C57BL/6/Jx hosts receiving B16 melanoma cells were inoculated subcutaneously; BDf1 mice were given intraperitoneal injections of L-1210 cells. Subcutaneous tumors were measured along their long and short axes every 1 to 3 days; tumor size is reported as the product of the two measurements (mm^2). The examination periods for mice receiving L-1210, MJY-alpha and B-16 tumor grafts were 45, 80, and 85 days, respectively. All mice were autopsied at the time of death or sacrifice.

[2] = tested on: L-1210 leukemia cell suspensions; test: Tumor cell survival (trypan blue), continuous exposure; type: cell-based, Mouse; conditions: for Percent Tumor Cell Survival / % tumor cell survival: L-1210; for Percent Tumor Cell Survival: treated 24 hr
MMTV = test: Extracellular MMTV protein by ELISA; type: cell-based, mouse; conditions: for ug MMTV protein/150 cm^2 culture: untreated 20.32
Description: Extracellular MMTV was quantitated using a modification of a direct Enzyme-Linked Immunosorbent Assay (ELISA) technique devised by Khan et al. (1982). Nunc immunoplates were sensitized with MMTV preparations disrupted in 2% NP-40 and serially diluted in 0.15M Na2 CO3 -0.035M NaHCO3 buffer, pH 8.6, by incubation in a moist chamber for 18 hours at 4° C. Wells were washed three times between all procedural steps with 0.01M phosphate-buffered-saline with 0.5% Tween 80, pH 7.4 (Pi/Na/Tween). Sensitized wells were then sequentially subjected to 1 hour incubations with (1) 0.5% bovine serum albumin in Pi/NaCl/Tween (4° C.), followed by either (2) preimmune rabbit sera or multivalent anti-MMTV antisera diluted 1:50 in Pi/NaCl/Tween at 37° C., and finally (3) a 1:1000 dilution of alkaline phosphatase-conjugated goat anti-rabbit IgG (Dynatech, Inc.) at 37° C. Reactions were terminated with 25 ul of 3N NaOH after incubation for 1 to 2 hours at 37° C. Intensity of the color reactions were determined at […] using a Dynatech ELISA plate reader. The detection limit of the assay was 3-5 ng MMTV protein per well.

SMILES: CCOC(=O)[C@H](CCSC)NC(=O)[C@H](Cc1cccc(N(CCCl)CCCl)c1)NC(=O)[C@@H](N)Cc1ccc(F)cc1.Cl [PTT.119, 3-(p-fluorophenyl)-L-alanyl-3-[m-bis(2-chloroethyl)aminophenyl]-L-alanyl-L-methionine ethyl ester hydrochloride]
- % tumor cell survival (AMML; 1 ug/ml, 1 hr): 95%
- % tumor cell survival (AMML; 1 ug/ml, 4 hr): 85%
- % tumor cell survival (AMML; 1 ug/ml, 24 hr): 66%
- % tumor cell survival (AMML; 5 ug/ml, 1 hr): 50%
- % tumor cell survival (AMML; 5 ug/ml, 4 hr): 52%
- % tumor cell survival (AMML; 5 ug/ml, 24 hr): 6%
- % tumor cell survival (AMML; 10 ug/ml, 1 hr): 60%
- % tumor cell survival (AMML; 10 ug/ml, 4 hr): 41%
- % tumor cell survival (AMML; 10 ug/ml, 24 hr): 21%
- % tumor cell survival (AMML; 25 ug/ml, 1 hr): 20%
- % tumor cell survival (AMML; 25 ug/ml, 4 hr): 15%
- % tumor cell survival (AMML; 25 ug/ml, 24 hr): 14%
- % tumor cell survival (AMML; 50 ug/ml, 1 hr): 4%
- % tumor cell survival (AMML; 50 ug/ml, 4 hr): 3%
- % tumor cell survival (AMML; 50 ug/ml, 24 hr): 4%
- endogenous (C-type) virus production (C-type virus): no detection of any endogenous virus production
- tumor growth in recipients ([1]; 10^6 MJY-alpha cells treated with 25 ug or higher for 30 to 240 min): complete absence of tumor growth
- MEAN SURVIVAL TIME (MST) of recipients ([1]; MJY-alpha, 5 ug/ml, 60 min): 52 days
- MEAN SURVIVAL TIME (MST) of recipients ([1]; MJY-alpha, 5 ug/ml, 120 min): 43 days
- MEAN SURVIVAL TIME (MST) of recipients ([1]; MJY-alpha, 10 ug/ml, 30 min): 44 days
- MEAN SURVIVAL TIME (MST) of recipients ([1]; MJY-alpha, 10 ug/ml, 60 min): 46 days
- MEAN SURVIVAL TIME (MST) of recipients ([1]; MJY-alpha, 10 ug/ml, 120 min): 61 days
- MEAN SURVIVAL TIME (MST) of recipients ([1]; MJY-alpha, 25 ug/ml, 30 min): 56 days
- initial lag period between inoculation and appearance of palpable tumors ([1]; MJY-alpha, increasing dosages, 2 hr treatment): lengthened
- reduction of viable tumor cell population ([1]; MJY-alpha, inferred from LD100 of 100 viable cells): at least 99.9%
- tumor growth rates of untreated and treated cells ([1]; MJY-alpha, once graft established): identical
- Percent Tumor Cell Survival ([2]; 0.1 ug/ml): 82%
- % tumor cell survival ([2]; 1 ug/ml, 1 hr exposure): 95%
- % tumor cell survival ([2]; 1 ug/ml, 8 hr): 100%
- % tumor cell survival ([2]; 1 ug/ml, 24 hr): 65%
- Percent Tumor Cell Survival ([2]; 1 ug/ml): 70%
- % tumor cell survival ([2]; 5 ug/ml, 1 hr): 100%
- % tumor cell survival ([2]; 5 ug/ml, 4 hr): 84%
- % tumor cell survival ([2]; 5 ug/ml, 24 hr): 57%
- Percent Tumor Cell Survival ([2]; 5 ug/ml): 62%
- % tumor cell survival ([2]; 10 ug/ml, 1 hr): 92%
- % tumor cell survival ([2]; 10 ug/ml, 4 hr): 75%
- % tumor cell survival ([2]; 10 ug/ml, 24 hr): 12%
- Percent Tumor Cell Survival ([2]; 10 ug/ml): 28%
- % tumor cell survival ([2]; 25 ug/ml, 1 hr): 50%
- % tumor cell survival ([2]; 25 ug/ml, 4 hr): 25%
- % tumor cell survival ([2]; 25 ug/ml, 8 hr): 15%
- % tumor cell survival ([2]; 25 ug/ml, 24 hr): 0%
- Percent Tumor Cell Survival ([2]; 25 ug/ml): 6%
- decrease in leukemia cell survival ([2]; continuous 24 hr exposure, all concentrations tested (0.1 to 50 ug/ml)): 18-94%
- levels of extracellular MMTV compared to control cells (MMTV; 0.15, 1.5 and 7.5 uM, after 10 in vitro passages): less than 50%
- ug MMTV protein/150 cm^2 culture (MMTV; continual 0.15 uM, passage 1): 17.4 µg
- ug MMTV protein/150 cm^2 culture (MMTV; continual 0.15 uM, passage 5-6): 16.8 µg
- ug MMTV protein/150 cm^2 culture (MMTV; continual 0.15 uM, passage 9-10): 9.52 µg
- ug MMTV protein/150 cm^2 culture (MMTV; continual 1.5 uM, passage 5-6): 15.9 µg
- ug MMTV protein/150 cm^2 culture (MMTV; continual 1.5 uM, passage 9-10): 7.5 µg
- ug MMTV protein/150 cm^2 culture (MMTV; continual 7.5 uM, passage 5-6): 11.8 µg
- ug MMTV protein/150 cm^2 culture (MMTV; continual 7.5 uM, passage 9-10): 8.3 µg
- MMTV protein, % of control level (MMTV; day 1, 15 uM 2 hr pulse): 78%
- ug MMTV protein/75 cm^2 flask (MMTV; day 1, 15 uM 2 hr pulse, control 20.6): 16.0 µg
- MMTV protein, % of control level (MMTV; day 1, 15 uM 4 hr pulse): 81%
- ug MMTV protein/75 cm^2 flask (MMTV; day 1, 15 uM 4 hr pulse, control 20.6): 16.7 µg
- MMTV protein, % of control level (MMTV; day 1, 37.5 uM 0.5 hr pulse): 70%
- ug MMTV protein/75 cm^2 flask (MMTV; day 1, 37.5 uM 0.5 hr pulse, control 20.6): 14.4 µg
- MMTV protein, % of control level (MMTV; day 1, 37.5 uM 1.0 hr pulse): 53%
- ug MMTV protein/75 cm^2 flask (MMTV; day 1, 37.5 uM 1.0 hr pulse, control 20.6): 11.0 µg
- MMTV protein, % of control level (MMTV; day 2, 15 uM 2 hr pulse): 64%
- ug MMTV protein/75 cm^2 flask (MMTV; day 2, 15 uM 2 hr pulse, control 19.3): 12.3 µg
- MMTV protein, % of control level (MMTV; day 2, 15 uM 4 hr pulse): 62%
- ug MMTV protein/75 cm^2 flask (MMTV; day 2, 15 uM 4 hr pulse, control 19.3): 11.9 µg
- MMTV protein, % of control level (MMTV; day 2, 37.5 uM 0.5 hr pulse): 57%
- ug MMTV protein/75 cm^2 flask (MMTV; day 2, 37.5 uM 0.5 hr pulse, control 19.3): 11.0 µg
- MMTV protein, % of control level (MMTV; day 2, 37.5 uM 1.0 hr pulse): 58%
- ug MMTV protein/75 cm^2 flask (MMTV; day 2, 37.5 uM 1.0 hr pulse, control 19.3): 11.2 µg
- MMTV protein, % of control level (MMTV; day 7, 15 uM 2 hr pulse): 31%
- ug MMTV protein/75 cm^2 flask (MMTV; day 7, 15 uM 2 hr pulse, control 35.2): 11.0 µg
- MMTV protein, % of control level (MMTV; day 7, 15 uM 4 hr pulse): 22%
- ug MMTV protein/75 cm^2 flask (MMTV; day 7, 15 uM 4 hr pulse, control 35.2): 7.6 µg
- MMTV protein, % of control level (MMTV; day 7, 37.5 uM 0.5 hr pulse): 16%
- ug MMTV protein/75 cm^2 flask (MMTV; day 7, 37.5 uM 0.5 hr pulse, control 35.2): 5.8 µg
- MMTV protein, % of control level (MMTV; day 7, 37.5 uM 1.0 hr pulse): 3%
- ug MMTV protein/75 cm^2 flask (MMTV; day 7, 37.5 uM 1.0 hr pulse, control 35.2): 0.9 µg
